Test results from patent US20090117613A1, “Method for redox reaction using an old yellow enzyme” (priority 2007, published 2009).

Tests used:
Assay type in all cases: binding
[1] = target: T1, Geobacillus kaustophilus Old Yellow Enzyme (GkOYE, YP—148185.1), wild type (Geobacillus kaustophilus, UniProt Q5KXG9); assay: Titration of wild type GkOYE with pHBA
T1 construct: made in house; host or cells: E. coli DH5α
T1 sequence (Q5KXG9 1-340): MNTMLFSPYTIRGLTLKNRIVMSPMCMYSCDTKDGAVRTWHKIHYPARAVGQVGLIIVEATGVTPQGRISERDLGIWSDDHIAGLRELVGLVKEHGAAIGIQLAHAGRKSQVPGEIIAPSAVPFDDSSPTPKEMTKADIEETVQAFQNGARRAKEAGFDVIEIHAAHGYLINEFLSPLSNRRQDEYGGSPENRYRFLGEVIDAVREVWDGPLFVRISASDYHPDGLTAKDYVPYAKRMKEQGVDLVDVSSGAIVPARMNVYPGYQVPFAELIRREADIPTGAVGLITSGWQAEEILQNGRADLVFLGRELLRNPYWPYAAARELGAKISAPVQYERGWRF
Source text: (§1) Mutants of GkOYE (Y28F, H164A, H167A; H164A/H167A; 2 clones each) were transformed into and expressed in E. coli DH5alpha.

[2] = target: T2, Geobacillus kaustophilus Old Yellow Enzyme (GkOYE, YP—148185.1) mutant H164A (Geobacillus kaustophilus, UniProt Q5KXG9, H164A); assay: Titration of GkOYE mutant H164A with pHBA
T2 construct: made in house; host or cells: E. coli DH5alpha
T2 sequence (Q5KXG9 whole entry H164A): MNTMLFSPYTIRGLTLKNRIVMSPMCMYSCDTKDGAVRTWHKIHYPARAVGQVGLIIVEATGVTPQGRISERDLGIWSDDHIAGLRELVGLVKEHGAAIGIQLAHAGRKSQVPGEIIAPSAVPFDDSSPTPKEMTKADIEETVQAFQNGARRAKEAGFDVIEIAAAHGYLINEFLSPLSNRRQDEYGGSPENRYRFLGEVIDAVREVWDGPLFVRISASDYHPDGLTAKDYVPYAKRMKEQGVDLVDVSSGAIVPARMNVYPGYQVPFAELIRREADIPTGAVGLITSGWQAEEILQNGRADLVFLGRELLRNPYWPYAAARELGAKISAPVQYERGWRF
Source text: as §1

[3] = target: T3, Geobacillus kaustophilus Old Yellow Enzyme (GkOYE, YP—148185.1) mutant Y28F (Geobacillus kaustophilus, UniProt Q5KXG9, Y28F); assay: Titration of GkOYE mutant Y28F with pHBA
T3 construct: made in house; host or cells: E. coli DH5alpha
T3 sequence (Q5KXG9 whole entry Y28F): as the sequence (Q5KXG9 whole entry H164A) above, with Y28F, A164H counted along it
Source text: as §1

[4] = target: T4, Geobacillus kaustophilus Old Yellow Enzyme (GkOYE, YP—148185.1) mutant H167A (Geobacillus kaustophilus, UniProt Q5KXG9, H167A); assay: Titration of GkOYE mutant H167A with pHBA
T4 construct: made in house; host or cells: E. coli DH5alpha
T4 sequence (Q5KXG9 whole entry H167A): as the sequence (Q5KXG9 whole entry H164A) above, with A164H, H167A counted along it
Source text: as §1

[5] = target: T5, Geobacillus kaustophilus Old Yellow Enzyme (GkOYE, YP—148185.1) mutant H164A/H167A (Geobacillus kaustophilus, UniProt Q5KXG9, H164A/H167A); assay: Titration of GkOYE double mutant H164A/H167A with pHBA
T5 construct: made in house; host or cells: E. coli DH5alpha
T5 sequence (Q5KXG9 whole entry H164A/H167A): as the sequence (Q5KXG9 whole entry H164A) above, with H167A counted along it
Source text: as §1

SMILES: O=Cc1ccc(O)cc1 [pHBA]
- Kd [1]: 3.1 µM
- Kd [2]: 1000 to 10000 µM
- Kd [3]: 1000 to 10000 µM
- Kd [4]: 1000 to 10000 µM
- Kd [5]: 1000 to 10000 µM
